Measured values reported in US20240246954A1, “COMPOSITIONS AND METHODS FOR INHIBITING KRAS” (TheRas, Inc., priority 2021, published 2024).

Key:
[1] = biological target: T1, Avi-KRAS G12D (1-169) GppNHp/RAF1 RBD-3×FLAG (52-151) (Homo sapiens, UniProt P01116, G12D); assay: HTRF Raf1-KRAS G12D-GppNHp disruption assay; format: biochemical; conditions: 1 h incubation
T1 construct: Avi-KRAS G12D (1-169) GppNHp
Protocol: (§1) The HTRF assay employed the following protocol:
(§2) Compounds were dispensed in assay plate (384-well, Grenier Bione #784075) using Echo (model 555) with dose response settings: 200 nL final volume, titration from 100 μM as a 10-point dilution series. Protein mix was prepared in assay buffer, and dispensed on plates, 10 μL per well, then incubated for 1 h at room temperature, with 700 rpm shaking. Reagents mix was prepared and dispensed on plates, 10 μL per well, then incubated for 1 h at room temperature, with 700 rpm shaking.
(§3) Plates were analyzed on an Envision plate reader using the following setting: Excitation 320 nm, Bandwidth […]; Emission 615 nm, Bandwidth […], Gain 100%, Flashes 100, Lag 60 μs. Data was reported as percentage of activity, with DMSO as 100%. Data was plotted and analyzed using Prism 8.

[2] = biological target: T2, Avi-KRAS G12D/Q25A (1-169) GppNHp/3×FLAG-PI3KCA (157-299) (Homo sapiens, UniProt P01116, G12D/Q25A); assay: HTRF PI3KCA-KRAS G12D/Q25A-GppNHp disruption assay; format: biochemical; conditions: 1 h incubation
T2 construct: Avi-KRAS G12D/Q25A (1-169) GppNHp
T2 sequence (P01116 1-169 isoform P01116-2 G12D/Q25A limits assumed): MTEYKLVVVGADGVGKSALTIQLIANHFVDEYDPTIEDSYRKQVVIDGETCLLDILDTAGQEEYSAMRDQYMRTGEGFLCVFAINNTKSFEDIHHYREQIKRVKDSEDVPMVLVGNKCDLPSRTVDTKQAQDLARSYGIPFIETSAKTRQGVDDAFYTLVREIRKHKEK
Protocol: as §1, §2, §3

T1 sequence (P01116 1-169 isoform P01116-2 G12D limits assumed): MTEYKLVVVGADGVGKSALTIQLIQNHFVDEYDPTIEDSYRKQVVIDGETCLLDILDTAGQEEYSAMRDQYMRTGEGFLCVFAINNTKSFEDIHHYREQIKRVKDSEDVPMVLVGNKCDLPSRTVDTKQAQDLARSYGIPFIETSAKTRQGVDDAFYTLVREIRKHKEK

| IC50 [1] | IC50 [2] | Structure (SMILES) |
| --- | --- | --- |
| 1 to 10 µM | 10 to 30 µM | CN(c1nc(OCC23CCCN2CCC3)nc2c(F)c(-c3ccc(F)c4sc(N)nc34)c(C(F)(F)F)cc12)[C@H]1C[C@@H]2CC[C@H]1N2 (atropisomer, axis not shown) [Compound 270] |
| 1 to 10 µM | 1 to 10 µM | CN(c1nc(OCC23CCCN2CCC3)nc2c(F)c(-c3ccc(F)c4sc(N)nc34)c(C(F)(F)F)cc12)[C@@H]1CCN(C(=O)CN)C1 (atropisomer, axis not shown) [Compound 277] |
| 1 to 10 µM | 1 to 10 µM | Nc1nc2c(-c3c(C(F)(F)F)cc4c(N[C@H]5C[C@@H]6CC[C@H]5N6)nc(OCC56CCCN5CCC6)nc4c3F)ccc(F)c2s1 (atropisomer, axis not shown) [Compound 287] |
| 0.1 to 1 µM | 1 to 10 µM | CN(c1nc(OCC23CCCN2CCC3)nc2c(F)c(-c3ccc(F)c4sc(N)nc34)c(C(F)(F)F)cc12)[C@H]1CC[C@@H](N)CC1 (atropisomer, axis not shown) [Compound 294] |
| 1 to 10 µM | 1 to 10 µM | CN(c1nc(OCC23CCCN2CCC3)nc2c(F)c(-c3ccc(F)c4sc(N)nc34)c(C(F)(F)F)cc12)[C@@H]1CCNC1 (single isomer, unassigned) [Compound 238] |
| 10 to 30 µM | 10 to 30 µM | Nc1nc2c(-c3c(C(F)(F)F)cc4c(N5CCNCC5)ncnc4c3F)ccc(F)c2s1 [Compound 65, 7-fluoro-4-(8-fluoro-4-(piperazin-1-yl)-6-(trifluoromethyl)quinazolin-7-yl)benzo[d]thiazol-2-amine] |
| 10 to 30 µM | 10 to 30 µM | C#Cc1cc2c(N3CCNCC3)ncnc2c(F)c1-c1ccc(F)c2sc(N)nc12 [Compound 66, 4-(6-ethynyl-8-fluoro-4-(piperazin-1-yl)quinazolin-7-yl)-7-fluorobenzo[d]thiazol-2-amine] |
| 10 to 30 µM | 10 to 30 µM | CC(=O)N1CC(Nc2nc(OC[C@@H]3CCCN3C)nc3c(F)c(-c4ccc(F)c5sc(N)nc45)c(Cl)cc23)C1 [Compound 67] |
| 10 to 30 µM | 10 to 30 µM | CO[C@@H]1CN(C)C[C@H]1Oc1nc(NC2CNC2)c2cc(Cl)c(-c3ccc(F)c4sc(N)nc34)c(F)c2n1 [Compound 68] |
| 10 to 30 µM | 10 to 30 µM | CN1CCC[C@H]1COc1nc(N2CC3CNCC3C2)c2cc(Cl)c(-c3ccc(F)c4sc(N)nc34)c(F)c2n1 (stereo partly drawn) [Compound 71] |
| 10 to 30 µM | 10 to 30 µM | CC(=O)NCCNc1nc(OC[C@@H]2CCCN2C)nc2c(F)c(-c3ccc(F)c4sc(N)nc34)c(Cl)cc12 [Compound 76] |
| 10 to 30 µM | 10 to 30 µM | C[C@H]1CNCCN1c1nc(OC[C@@H]2CCCN2C)nc2c(F)c(-c3ccc(F)c4sc(N)nc34)c(Cl)cc12 [Compound 78] |
| 10 to 30 µM | 10 to 30 µM | CN1CCC[C@H]1COc1nc(NC2CNC2)c2cnc(-c3ccc(F)c4sc(N)nc34)c(F)c2n1 [Compound 80] |
| 1 to 10 µM | 1 to 10 µM | Nc1nc2c(-c3c(Cl)cc4c(N5CCNCC5)nc(OCC56CCCN5CCC6)nc4c3F)ccc(F)c2s1 [Compound 82] |
| 10 to 30 µM | 10 to 30 µM | C[C@H]1CN(c2nc(OC[C@@H]3CCCN3C)nc3c(F)c(-c4ccc(F)c5sc(N)nc45)c(Cl)cc23)CCN1 [Compound 84] |
| 10 to 30 µM | 10 to 30 µM | CN1CCC[C@H]1COc1nc(N2CC3(CCCN3)C2)c2cc(Cl)c(-c3ccc(F)c4sc(N)nc34)c(F)c2n1 [Compound 85] |
| 10 to 30 µM | 10 to 30 µM | CN1CCC[C@H]1COc1nc(NCCN)c2cc(Cl)c(-c3cccc4nc(N)n(C)c34)c(F)c2n1 [Compound 86] |
| 10 to 30 µM | 10 to 30 µM | CNc1nc2c(-c3c(Cl)cc4c(NCCN)nc(OC[C@@H]5CCCN5C)nc4c3F)ccc(F)c2s1 [Compound 87] |
| 10 to 30 µM | 10 to 30 µM | Nc1nc2c(-c3c(Cl)cc4c(NC5CNC5)nc(O)nc4c3F)ccc(F)c2s1 [Compound 90] |
| 10 to 30 µM | 10 to 30 µM | CN1CCC[C@H]1COc1nc(NCCN)c2cc(Cl)c(-c3cccc4nc(N)cn34)c(F)c2n1 [Compound 93] |
| 1 to 10 µM | 1 to 10 µM | CN1CCC[C@H]1COc1nc(NC2CCNC2)c2cc(Cl)c(-c3ccc(F)c4sc(N)nc34)c(F)c2n1 (stereo partly drawn) [Compound 98] |
| 1 to 10 µM | 10 to 30 µM | CN1CCC[C@H]1COc1nc(NC2CCCNC2)c2cc(Cl)c(-c3ccc(F)c4sc(N)nc34)c(F)c2n1 (stereo partly drawn) [Compound 99] |
| 1 to 10 µM | – | CN1CCC[C@H]1COc1nc(NC2CN(C(=O)CN)C2)c2cc(C(F)(F)F)c(-c3ccc(F)c4sc(N)nc34)c(F)c2n1 [Compound 130] |
| 10 to 30 µM | – | NC(=O)N1CC(Nc2nc(OCC34CCCN3CCC4)nc3c(F)c(-c4ccc(F)c5sc(N)nc45)c(-c4ccoc4)cc23)C1 [Compound 167] |
| 10 to 30 µM | – | Nc1nc2c(-c3c(C(F)(F)F)cc4c(N5CCNCC5)nc(OC[C@]56CCCN5C[C@H](F)C6)nc4c3F)ccc(F)c2s1 [Compound 169] |
| 10 to 30 µM | – | Nc1nc2c(-c3c(C(F)(F)F)cc4c(N5CCNCC5)nc(OC[C@@H]5CCCN5CC(F)F)nc4c3F)ccc(F)c2s1 [Compound 172] |
| 10 to 30 µM | – | NCC(=O)N1CCN(c2nc(OC[C@@H]3CCCN3CC(F)F)nc3c(F)c(-c4ccc(F)c5sc(N)nc45)c(C(F)(F)F)cc23)CC1 [Compound 193] |
| 1 to 10 µM | – | Nc1nc2c(-c3c(-c4ccoc4)cc4c(N5CC6CC(C5)N6)nc(OCC56CCCN5CCC6)nc4c3F)ccc(F)c2s1 [Compound 194] |

Second part, the compound before the results:

| Structure (SMILES) | IC50 [1] | IC50 [2] |
| --- | --- | --- |
| CN1CCC[C@H]1COc1nc(N[C@H]2C[C@H](N)C2)c2cc(Cl)c(-c3ccc(F)c4sc(N)nc34)c(F)c2n1 (atropisomer, axis not shown) [Compound 83] | 1 to 10 µM | 1 to 10 µM |
| CN(c1nc(OCC23CCCN2CCC3)nc2c(F)c(-c3ccc(F)c4sc(N)nc34)c(C(F)(F)F)cc12)[C@H]1C[C@@H](N)C1 (atropisomer, axis not shown) [Compound 250] | 0.1 to 1 µM | 0.1 to 1 µM |
| CN(c1nc(OCC23CCCN2CCC3)nc2c(F)c(-c3ccc(F)c4sc(N)nc34)c(C(F)(F)F)cc12)[C@H]1C[C@H]2CC[C@@H]1N2 (atropisomer, axis not shown) [Compound 271] | 0.1 to 1 µM | 1 to 10 µM |
| CN(c1nc(OCC23CCCN2CCC3)nc2c(F)c(-c3ccc(F)c4sc(N)nc34)c(C(F)(F)F)cc12)[C@@H]1CCN(C(N)=O)C1 (atropisomer, axis not shown) [Compound 278] | 1 to 10 µM | 1 to 10 µM |
| CN(c1nc(OCC23CCCN2CCC3)nc2c(F)c(-c3ccc(F)c4sc(N)nc34)c(C(F)(F)F)cc12)[C@@H]1CCN(C(N)=O)C1 (atropisomer, axis not shown) [Compound 279] | 10 to 30 µM | 1 to 10 µM |
| CO[C@@H]1C[C@@H](COc2nc(N3CCNCC3)c3cc(Cl)c(-c4ccc(F)c5sc(N)nc45)c(F)c3n2)N(C)C1 [Compound 69] | 10 to 30 µM | 10 to 30 µM |
| CNCCNc1nc(OC[C@@H]2CCCN2C)nc2c(F)c(-c3ccc(F)c4sc(N)nc34)c(Cl)cc12 [Compound 70] | 1 to 10 µM | 10 to 30 µM |
| CO[C@@H]1C[C@@H](COc2nc(NC3CNC3)c3cc(Cl)c(-c4ccc(F)c5sc(N)nc45)c(F)c3n2)N(C)C1 [Compound 73] | 1 to 10 µM | 10 to 30 µM |
| CN(C)CCNc1nc(OC[C@@H]2CCCN2C)nc2c(F)c(-c3ccc(F)c4sc(N)nc34)c(Cl)cc12 [Compound 75] | 1 to 10 µM | 10 to 30 µM |
| CN1CCC[C@H]1COc1nc(NCCN)c2cnc(-c3ccc(F)c4sc(N)nc34)c(F)c2n1 [Compound 81] | 10 to 30 µM | 10 to 30 µM |
| Nc1nc2c(-c3c(C(F)(F)F)cc4c(NC5CNC5)ncnc4c3F)ccc(F)c2s1 [Compound 88] | 10 to 30 µM | 10 to 30 µM |
| CN1CCC[C@H]1COc1nc(NC2CCNCC2)c2cc(Cl)c(-c3ccc(F)c4sc(N)nc34)c(F)c2n1 [Compound 91] | 1 to 10 µM | 1 to 10 µM |
| CN1CCC[C@H]1COc1nc(NCCN)c2cc(Cl)c(-c3cccc4oc(N)nc34)c(F)c2n1 [Compound 92] | 10 to 30 µM | 10 to 30 µM |
| N#Cc1cc2c(N3CCNCC3)ncnc2c(F)c1-c1ccc(F)c2sc(N)nc12 [Compound 94, 7-(2-amino-7-fluorobenzo[d]thiazol-4-yl)-8-fluoro-4-(piperazin-1-yl)quinazoline-6-carbonitrile] | 10 to 30 µM | 10 to 30 µM |
| CN1CCC[C@H]1COc1nc(N2C[C@H]3NCC[C@H]32)c2cc(Cl)c(-c3ccc(F)c4sc(N)nc34)c(F)c2n1 [Compound 95] | 10 to 30 µM | 10 to 30 µM |
| CN1CCC[C@H]1COc1nc(N2CC3(CCN3)C2)c2cc(Cl)c(-c3ccc(F)c4sc(N)nc34)c(F)c2n1 [Compound 96] | 10 to 30 µM | 10 to 30 µM |
| CN1CCC[C@H]1COc1nc(NC2CN(C(=O)CN)C2)c2cc(Cl)c(-c3ccc(F)c4sc(N)nc34)c(F)c2n1 [Compound 97] | 1 to 10 µM | 10 to 30 µM |
| Nc1nc2c(-c3c(C(F)(F)F)cc4c(N5CCNCC5)nc(OC[C@@H]5CCCN5CCF)nc4c3F)ccc(F)c2s1 [Compound 168] | 10 to 30 µM | – |
| CN(c1nc(OCC23CCCN2CCC3)nc2c(F)c(-c3ccc(F)c4sc(N)nc34)c(C(F)(F)F)cc12)C1CN(C(=O)CN)C1 [Compound 171] | 1 to 10 µM | – |
| CN(c1nc(OCC23CCCN2CCC3)nc2c(F)c(-c3ccc(F)c4sc(N)nc34)c(C(F)(F)F)cc12)C1CN(C(N)=O)C1 [Compound 173] | 1 to 10 µM | – |
